Assay results reported in patent US20250136555A1 (HARBIN MEDISAN PHARMACEUTICAL CO., LTD., priority 2022, published 2025).
Read-outs that look alike come from different tables or passages of the source.

Tests used:
Assay type in all cases: cell-based
PPARγ = biological target: T1, PPARγ (Homo sapiens, UniProt P37231); assay: GAL4 hybrid reporter gene method, PPARγ agonistic activity
T1 construct: expressed in transfected cells; host or cells: COS-7
T1 sequence (P37231 238-503 limits assumed): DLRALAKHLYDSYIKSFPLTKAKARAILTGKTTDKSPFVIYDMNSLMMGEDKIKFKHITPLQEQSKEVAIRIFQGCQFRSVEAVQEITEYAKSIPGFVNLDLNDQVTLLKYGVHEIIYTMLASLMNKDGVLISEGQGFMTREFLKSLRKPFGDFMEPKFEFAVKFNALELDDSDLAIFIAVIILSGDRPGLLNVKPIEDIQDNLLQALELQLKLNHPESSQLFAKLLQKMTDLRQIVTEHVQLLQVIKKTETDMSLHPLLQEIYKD
Method: (§1) Cos-7 cells (African green monkey kidney fibroblasts, commonly used tool cells) were cultured in a 10-cm cell culture dish with a DMEM complete medium containing 10% fetal bovine serum. When growing at a density of about 70%, the cells were ready for transfection. […] The working solution described above was then combined with 8 mL of the DMEM complete medium, and the mixture was added to the cell culture dish for cell transfection. After 4 h of transfection, the cells were digested, resuspended, and seeded into a 96-well plate at 25,000 cells/well. […] 10 μL of a reporter gene detection solution (purchased from Shanghai Beyotime Biological Tech. Co., Ltd.) was added. After the resulting solution was mixed and reacted, biological fluorescence was detected by using a multifunctional microplate reader, and corresponding half maximal effective concentration (EC50) values were calculated according to the detection values. […] Transfection working solutions for different nuclear receptors were prepared and added into COS-7 cells. The preparation method for the transfection working solution was as follows: the constructed pBIND-Gal4-PPARα (LBD) (or pBIND-Gal4-PPARδ (LBD) plasmid or pBIND-Gal4-PPARγ (LBD) plasmid or pBIND-Gal4-RARα (LBD) plasmid or pBIND-Gal4-RARγ (LBD) plasmid or pBIND-Gal4-RARβ (LBD) plasmid or pBIND-Gal4-RORα (LBD) plasmid or pBIND-Gal4-RORγ (LBD) plasmid or pBIND-Gal4-RORβ (LBD) plasmid or pBIND-Gal4-FXR (LBD) plasmid or pBIND-Gal4-RXRα.

PPARδ = biological target: T2, PPARδ (Homo sapiens, UniProt Q03181); assay: GAL4 hybrid reporter gene method, PPARδ agonistic activity
T2 construct: expressed in transfected cells; host or cells: COS-7
T2 sequence (Q03181 211-439 limits assumed): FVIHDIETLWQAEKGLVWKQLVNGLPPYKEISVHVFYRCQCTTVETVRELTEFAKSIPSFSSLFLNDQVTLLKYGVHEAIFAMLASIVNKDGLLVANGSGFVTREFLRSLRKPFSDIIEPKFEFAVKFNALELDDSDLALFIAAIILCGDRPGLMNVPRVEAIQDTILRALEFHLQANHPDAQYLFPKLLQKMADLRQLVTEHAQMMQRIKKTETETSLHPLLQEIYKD
Method: as §1

PPARα = biological target: T3, PPARα (Homo sapiens, UniProt Q07869); assay: GAL4 hybrid reporter gene method, PPARα agonistic activity; conditions: Cos-7 cells, Gal4-PPARα (LBD); GW7647 10 nM = 100%; 16 h
T3 construct: expressed in transfected cells; host or cells: COS-7
T3 sequence (Q07869 239-466 limits assumed): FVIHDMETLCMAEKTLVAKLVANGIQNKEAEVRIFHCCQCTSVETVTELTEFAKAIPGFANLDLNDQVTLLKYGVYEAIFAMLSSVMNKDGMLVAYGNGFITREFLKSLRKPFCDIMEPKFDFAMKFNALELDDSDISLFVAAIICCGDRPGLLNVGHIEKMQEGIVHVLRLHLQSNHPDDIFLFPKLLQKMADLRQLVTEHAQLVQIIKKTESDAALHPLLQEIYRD
Method: as §1

[1] = Cos-7 cells, Gal4-PPARδ (LBD), GW501516 10 nM = 100%, 16 h
[2] = Cos-7 cells, Gal4-PPARγ (LBD), Rosiglitazone 1 μM = 100%, 16 h

EC50 (PPARγ)	EC50 (PPARδ; [1])	PPARδ EC50 (nM) (PPARδ; [1])	EC50 (PPARα)	EC50 (PPARδ)	EC50 (PPARγ; [2])	PPARα EC50 (nM) (PPARα)	Compound
4150 nM	4.4 nM	low nanomolar levels					Cc1cc(CN2C(=O)CN(c3ccc(OC(F)(F)F)cc3)C2=O)cc(C)c1OC(C)(C)C(=O)O [Compound 3, 2-(4-((2,5-Dioxo-3-(4-(trifluoromethoxy)phenyl)imidazolidin-1-yl)methyl)-2,6-dimethylphenoxy)-2-methylpropionic Acid]
	60 nM		252 nM				Cc1cc(CN2C(=O)N(c3ccc(C(F)(F)F)cc3)C(C)(C)C2=O)cc(C)c1OC(C)(C)C(=O)O [Compound 5, 2-(4-((4,4-Dimethyl-2,5-dioxo-3-(4-(trifluoromethyl)phenyl)imidazolin-1-yl)methyl)-2,6-dimethylphenoxy)-2-methylpropionic Acid]
			668 nM	176 nM			Cc1cc(CN2C(=O)N(c3ccc(OC(F)(F)F)cc3)C(C)(C)C2=O)cc(C)c1OC(C)(C)C(=O)O [Compound 7]
> 5000 nM			994 nM	976 nM			Cc1cc(CN2C(=O)CN(c3ccc(C(F)(F)F)cc3)C2=O)ccc1OCC(=O)O [Compound 9, 2-(4-((2,5-Dioxo-3-(4-(trifluoromethyl)phenyl)imidazolidin-1-yl)methyl)-2-methylphenoxy)acetic Acid]
2480 nM			77.1 nM	33.1 nM			CC(C)(Oc1ccc(CN2C(=O)CN(c3ccc(C(F)(F)F)cc3)C2=O)cc1C(F)(F)F)C(=O)O [Compound 11, 2-(4-((2,5-Dioxo-3-(4-(trifluoromethyl)phenyl)imidazolidin-1-yl)methyl)-2-(trifluoromethyl)phenoxy)-2-methylpropionic Acid]
1290 nM			1.2 nM	10.8 nM			Cc1cc(CN2C(=O)CN(c3ccc(C(F)(F)F)cc3)C2=O)cc(Cl)c1OC(C)(C)C(=O)O [Compound 13, 2-(2-Chloro-4-((2,5-dioxo-3-(4-(trifluoromethyl)phenyl)imidazolidin-1-yl)methyl)-6-methylphenoxy)-2-methylpropionic Acid]
	24.8 nM						CC(C)(Oc1c(Cl)cc(CN2C(=O)CN(c3ccc(C(F)(F)F)cc3)C2=O)cc1Cl)C(=O)O [Compound 17, 2-(2,6-Dichloro-4-((2,5-dioxo-3-(4-(trifluoromethyl)phenyl)imidazolidin-1-yl)methyl)phenoxy)-2-methylpropionic Acid]
	23.6 nM		2.2 nM				CC(C)(Oc1c(Br)cc(CN2C(=O)CN(c3ccc(C(F)(F)F)cc3)C2=O)cc1Br)C(=O)O [Compound 19, 2-(2,6-Dibromo-4-((2,5-dioxo-3-(4-(trifluoromethyl)phenyl)imidazolidin-1-yl)methyl)phenoxy)-2-methylpropionic Acid]
> 5000 nM	101 nM		42.9 nM				CC(C)(Oc1c(F)cc(CN2C(=O)CN(c3ccc(C(F)(F)F)cc3)C2=O)cc1F)C(=O)O [Compound 21, 2-(4-((2,5-Dioxo-3-(4-(trifluoromethyl)phenyl)imidazolin-1-yl)methyl)-2,6-difluorophenoxy)-2-methylpropionic Acid]
	25.7 nM		26.5 nM		629 nM		Cc1ccc(N2CC(=O)N(Cc3cc(C)c(OC(C)(C)C(=O)O)c(C)c3)C2=O)cc1 [Compound 23, 2-(4-((2,5-Dioxo-3-(4-methylphenyl)imidazolin-1-yl)methyl)-2,6-dimethylphenoxy)-2-methylpropionic Acid]
	72.3 nM		101 nM		3640 nM		Cc1cc(CN2C(=O)CN(c3ccc(F)cc3)C2=O)cc(C)c1OC(C)(C)C(=O)O [Compound 25, 2-(4-((3-(4-Fluorophenyl)-2,5-dioxoimidazolin-1-yl)methyl)-2,6-dimethylphenoxy)-2-methylpropionic Acid]
			17 nM		1420 nM		Cc1cc(CN2C(=O)CN(c3ccc(Cl)cc3)C2=O)cc(C)c1OC(C)(C)C(=O)O [Compound 27, 2-(4-((3-(4-Chlorophenyl)-2,5-dioxoimidazolin-1-yl)methyl)-2,6-dimethylphenoxy)-2-methylpropionic Acid]
736 nM		low nanomolar levels	1.4 nM	1 nM		low nanomolar levels	Cc1cc(N2CC(=O)N(Cc3cc(C)c(OC(C)(C)C(=O)O)c(C)c3)C2=O)ccc1C(F)(F)F [Compound 29, 2-(2,6-Dimethyl-4-((3-(3-methyl-4-(trifluoromethyl)phenyl)-2,5-dioxoimidazolin-1-yl)methyl)phenoxy)-2-methylpropionic Acid]
	0.8 nM		2.1 nM				Cc1cc(CN2C(=O)CN(c3ccc(C(F)(F)F)c(F)c3)C2=O)cc(C)c1OC(C)(C)C(=O)O [Compound 31, 2-(2,6-Dimethyl-4-((3-(3-fluoro-4-(trifluoromethyl)phenyl)-2,5-dioxoimidazolin-1-yl)methyl)phenoxy)-2-methylpropionic Acid]
	1.7 nM	low nanomolar levels	1 nM		657 nM	low nanomolar levels	Cc1cc(CN2C(=O)CN(c3ccc(C(F)(F)F)c(Cl)c3)C2=O)cc(C)c1OC(C)(C)C(=O)O [Compound 33, 2-(2,6-Dimethyl-4-((3-(3-chloro-4-(trifluoromethyl)phenyl)-2,5-dioxoimidazolin-1-yl)methyl)phenoxy)-2-methylpropionic Acid]
	90.5 nM		166 nM		2100 nM		Cc1cc(CN2C(=O)CN(c3ccccc3)C2=O)cc(C)c1OC(C)(C)C(=O)O [Compound 35, 2-(4-((2,5-Dioxo-3-phenylimidazolin-1-yl)methyl)-2,6-dimethylphenoxy)-2-methylpropionic Acid]
	84.4 nM		98.1 nM		4060 nM		Cc1cc(CN2C(=O)CN(c3ccc(C#N)cc3)C2=O)cc(C)c1OC(C)(C)C(=O)O [Compound 37, 2-(4-((3-(4-Cyanobenzene)-2,5-dioxoimidazolin-1-yl)methyl)-2,6-dimethylphenoxy)-2-methylpropionic Acid]
	36.1 nM		18.8 nM		3370 nM		COc1ccc(N2CC(=O)N(Cc3cc(C)c(OC(C)(C)C(=O)O)c(C)c3)C2=O)cc1 [Compound 39, 2-(4-((3-(4-Methoxyphenyl)-2,5-dioxoimidazolin-1-yl)methyl)-2,6-dimethylphenoxy)-2-methylpropionic Acid]
	6.2 nM	low nanomolar levels	0.9 nM		630 nM	low nanomolar levels	Cc1cc(CN2C(=O)CN(c3ccc(-c4ccccc4)cc3)C2=O)cc(C)c1OC(C)(C)C(=O)O [Compound 41]
		low nanomolar levels				low nanomolar levels	CSc1ccc(N2CC(=O)N(Cc3cc(C)c(OC(C)(C)C(=O)O)c(C)c3)C2=O)cc1 [Compound 43]
	5.9 nM	low nanomolar levels	3.8 nM		996 nM	low nanomolar levels	Cc1cc(CN2C(=O)CN(c3cccc(C(F)(F)F)c3)C2=O)cc(C)c1OC(C)(C)C(=O)O [Compound 45, 2-(4-((2,5-Dioxo-3-(3-(trifluoromethyl)phenyl)imidazolin-1-yl)methyl)-2,6-dimethylphenoxy)-2-methylpropionic Acid]
			3.9 nM		1200 nM	low nanomolar levels	Cc1cc(CN2C(=O)CN(c3ccc(Br)cc3)C2=O)cc(C)c1OC(C)(C)C(=O)O [Compound 61, 2-(4-((3-(4-Bromophenyl)-2,5-dioxoimidazolin-1-yl)methyl)-2,6-dimethylphenoxy)-2-methylpropionic Acid]
			25.1 nM	4 nM			Cc1cc(CN2C(=O)CN(c3ccc(C(F)(F)F)cc3)C2=O)cc(C)c1OC(C)C(=O)O (stereo not drawn) [Compound 63, 2-(4-((2,5-Dioxo-3-(4-(trifluoromethyl)phenyl)imidazolin-1-yl)methyl)-2,6-dimethylphenoxy)propionic Acid]
			0.8 nM		971 nM		Cc1cc(CN2C(=O)CN(c3ccc(C(C)C)cc3)C2=O)cc(C)c1OC(C)(C)C(=O)O [Compound 65, 2-(4-((3-(4-Isopropylphenyl)-2,5-dioxoimidazolin-1-yl)methyl)-2,6-dimethylphenoxy)-2-methylpropionic Acid]
	6.3 nM	low nanomolar levels	1 nM			low nanomolar levels	CCc1ccc(N2CC(=O)N(Cc3cc(C)c(OC(C)(C)C(=O)O)c(C)c3)C2=O)cc1 [Compound 75, 2-(4-(3-(4-Ethylphenyl)-2,5-dioxoimidazolidin-1-yl)methyl)-2,6-dimethylphenoxy-2-methylpropionic Acid]

Compound	EC50 (PPARγ)	EC50 (PPARδ; [1])	PPARδ EC50 (nM) (PPARδ; [1])	EC50 (PPARα)	EC50 (PPARδ)	EC50 (PPARγ; [2])	PPARα EC50 (nM) (PPARα)
Cc1cc(CN2C(=O)CN(Cc3ccc(C(F)(F)F)cc3)C2=O)cc(C)c1OC(C)(C)C(=O)O [Compound 93]						1490 nM	
